Reference: PMC12203311, “Design, synthesis, in silico and in vitro evaluation of pyrrole–indole hybrids as dual tubulin and aromatase inhibitors with potent anticancer activities” (RSC Advances, 2025)

What was measured:
[1] = tested on: NCI-H226; test: NCI60 five-dose screen; type: cell-based; conditions: Homo sapiens, NCI-H226, NSC lung cancer; for CC50: read-out: LC50 (the source's name)
[2] = tested on: MDA-MB-435; test: NCI60 five-dose screen; type: cell-based, human; conditions: Homo sapiens; for GI50: MDA-MB-435, melanoma
[3] = tested on: COLO 205; test: NCI60 five-dose screen; type: cell-based, human; conditions: Homo sapiens; for CC50: COLO 205, COLO 205, colon cancer, read-out: LC50 (the source's name); for GI50: COLO 205, colon cancer
[4] = tested on: NCI-H23; test: NCI60 five-dose screen; type: cell-based; conditions: Homo sapiens, NCI-H23, NSC lung cancer; for CC50: read-out: LC50 (the source's name)
[5] = tested on: SK-MEL-5; test: NCI60 five-dose screen; type: cell-based, human; conditions: Homo sapiens; for CC50: SK-MEL-5, SK-MEL-5, melanoma, read-out: LC50 (the source's name); for GI50: SK-MEL-5, melanoma
[6] = tested on: DU-145; test: NCI60 five-dose screen; type: cell-based; conditions: Homo sapiens, DU-145, prostate cancer; for CC50: read-out: LC50 (the source's name)
[7] = tested on: TK-10; test: NCI60 five-dose screen; type: cell-based; conditions: Homo sapiens, TK-10, renal cancer; for CC50: read-out: LC50 (the source's name)
[8] = tested on: OVCAR-3; test: NCI60 five-dose screen; type: cell-based; conditions: Homo sapiens, OVCAR-3, ovarian cancer; for CC50: read-out: LC50 (the source's name)
[9] = tested on: HCC-2998; test: NCI60 five-dose screen; type: cell-based; conditions: Homo sapiens, HCC-2998, colon cancer; for CC50: read-out: LC50 (the source's name)
[10] = tested on: HS 578T; test: NCI60 five-dose screen; type: cell-based; conditions: Homo sapiens, breast cancer; for CC50: read-out: LC50 (the source's name)
[11] = tested on: LOX IMVI; test: NCI60 five-dose screen; type: cell-based; conditions: Homo sapiens, melanoma; for CC50: read-out: LC50 (the source's name)
[12] = tested on: SK-OV-3; test: NCI60 five-dose screen; type: cell-based; conditions: Homo sapiens, SK-OV-3, ovarian cancer; for CC50: read-out: LC50 (the source's name)
[13] = tested on: HL-60 (TB); test: NCI60 five-dose screen; type: cell-based; conditions: Homo sapiens, leukemia; for CC50: read-out: LC50 (the source's name)
[14] = tested on: BT-549; test: NCI60 five-dose screen; type: cell-based; conditions: Homo sapiens, BT-549, breast cancer; for CC50: read-out: LC50 (the source's name)
[15] = tested on: MALME-3M; test: NCI60 five-dose screen; type: cell-based; conditions: Homo sapiens, melanoma; for CC50: read-out: LC50 (the source's name)
[16] = tested on: SF-268; test: NCI60 five-dose screen; type: cell-based; conditions: Homo sapiens, SF-268, CNS cancer; for CC50: read-out: LC50 (the source's name)
[17] = tested on: A549/ATCC; test: NCI60 five-dose screen; type: cell-based; conditions: Homo sapiens, NSC lung cancer; for CC50: read-out: LC50 (the source's name)
[18] = tested on: MDA-MB-468; test: NCI60 five-dose screen; type: cell-based; conditions: Homo sapiens, MDA-MB-468, breast cancer; for CC50: read-out: LC50 (the source's name)
[19] = molecular target: T1, Human CYP19 (aromatase) (Homo sapiens, UniProt P11511); test: Aromatase inhibition assay (DBF fluorometric substrate); type: biochemical; conditions: active defined as IC50 < 12.5 µM
T1 construct: purchased GENTEST, Woburn, MA 456260; host or cells: baculovirus/insect cells
T1 sequence (P11511 1-503): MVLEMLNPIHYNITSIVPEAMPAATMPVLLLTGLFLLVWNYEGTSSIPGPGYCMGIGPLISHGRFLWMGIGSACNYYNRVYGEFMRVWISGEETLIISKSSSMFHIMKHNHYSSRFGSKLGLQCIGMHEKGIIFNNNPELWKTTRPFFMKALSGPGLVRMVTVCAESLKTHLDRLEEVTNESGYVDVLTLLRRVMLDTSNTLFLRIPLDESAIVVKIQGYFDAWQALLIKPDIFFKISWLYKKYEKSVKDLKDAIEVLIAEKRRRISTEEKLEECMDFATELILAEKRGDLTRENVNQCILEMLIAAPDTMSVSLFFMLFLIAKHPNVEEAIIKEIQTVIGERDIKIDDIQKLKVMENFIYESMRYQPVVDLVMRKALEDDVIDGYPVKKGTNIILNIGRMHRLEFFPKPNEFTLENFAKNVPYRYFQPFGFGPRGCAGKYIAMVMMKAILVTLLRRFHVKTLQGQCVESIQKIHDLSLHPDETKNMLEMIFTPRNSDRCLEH
Method in brief: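 Supersomes expressing human CYP19 plus oxidoreductase (baculovirus/insect cell) with fluorometric substrate DBF; cofactor mixture pre-incubated 10 min at 37 °C, reaction run 30 min at 37 °C, stopped with NaOH. Fluorescence read at ex 490/em 530 nm.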

[20] = tested on: CAKI-1; test: NCI60 five-dose screen; type: cell-based; conditions: Homo sapiens, CAKI-1, renal cancer; for CC50: read-out: LC50 (the source's name)
[21] = tested on: 786-0; test: NCI60 five-dose screen; type: cell-based; conditions: Homo sapiens, 786-0, renal cancer; for CC50: read-out: LC50 (the source's name)
[22] = tested on: UACC-62; test: NCI60 five-dose screen; type: cell-based; conditions: Homo sapiens, UACC-62, melanoma; for CC50: read-out: LC50 (the source's name)
[23] = tested on: SNB-19; test: NCI60 five-dose screen; type: cell-based; conditions: Homo sapiens, SNB-19, CNS cancer; for CC50: read-out: LC50 (the source's name)
[24] = tested on: OVCAR-5; test: NCI60 five-dose screen; type: cell-based; conditions: Homo sapiens, OVCAR-5, ovarian cancer; for CC50: read-out: LC50 (the source's name)
[25] = tested on: SNB-75; test: NCI60 five-dose screen; type: cell-based; conditions: Homo sapiens, SNB-75, CNS cancer; for CC50: read-out: LC50 (the source's name)

O=C(N/N=C/c1cc(Cl)c[nH]1)c1[nH]c2ccc(Br)cc2c1-c1ccccc1 [Derivative 3h, (E)-5-Bromo-N′-((4-chloro-1H-pyrrol-2-yl)methylene)-3-phenyl-1H-indole-2-carbohydrazide]
GI50 [1]: 0.604 µM
CC50 [1]: > 100 µM
GI50 [2]: 0.185 µM
CC50 [3]: 1.88 µM
GI50 [3]: 0.251 µM
GI50 [4]: 0.317 µM
CC50 [4]: 36.5 µM
CC50 [5]: 3.08 µM
GI50 [5]: 0.228 µM
GI50 [6]: 0.352 µM
CC50 [6]: 27.2 µM
GI50 [7]: 3.91 µM
CC50 [7]: 83.2 µM
GI50 [8]: 0.27 µM
CC50 [8]: 19.7 µM
GI50 [9]: 0.224 µM
CC50 [9]: 4.2 µM
GI50 [10]: 0.284 µM
CC50 [10]: > 100 µM
GI50 [11]: 0.37 µM
CC50 [11]: 16.7 µM
GI50 [12]: 0.519 µM
CC50 [12]: 45.4 µM
GI50 [13]: 0.185 µM
CC50 [13]: 0.886 µM
GI50 [14]: 0.255 µM
CC50 [14]: 18.1 µM
GI50 [15]: 0.645 µM
CC50 [15]: 46.1 µM
GI50 [16]: 0.388 µM
CC50 [16]: 77.3 µM
GI50 [17]: 0.43 µM
CC50 [17]: 47.4 µM
GI50 [18]: 0.251 µM
CC50 [18]: 27.8 µM
IC50 [19]: 1.8 ± 0.4 µM
GI50 [20]: 0.253 µM
CC50 [20]: 27.5 µM
GI50 [21]: 0.459 µM
CC50 [21]: 39.8 µM
GI50 [22]: 0.559 µM
CC50 [22]: 66.3 µM
GI50 [23]: 0.638 µM
CC50 [23]: 61.9 µM
GI50 [24]: 0.473 µM
CC50 [24]: 36 µM
GI50 [25]: 0.247 µM
CC50 [25]: 75.5 µM

CCOC(=O)c1ccc(/C=N/NC(=O)c2[nH]c3ccc(Br)cc3c2-c2ccccc2)[nH]1 [Derivative 3i, Ethyl (E)-5-((2-(5-bromo-3-phenyl-1H-indole-2-carbonyl)hydrazono)methyl)-1H-pyrrole-2-carboxylate]
GI50 [1]: 3.13 µM
CC50 [1]: 45.4 µM
CC50 ([2]; MDA-MB-435, MDA-MB-435, melanoma, read-out: LC50 (the source's name)): 27.6 µM
GI50 [2]: 0.464 µM
CC50 [3]: 36.9 µM
GI50 [3]: 3.15 µM
GI50 [4]: 2.59 µM
CC50 [4]: 43.2 µM
CC50 [5]: 7.68 µM
GI50 [5]: 1.48 µM
GI50 [6]: 3.32 µM
CC50 [6]: 38.7 µM
GI50 [7]: 6.92 µM
CC50 [7]: > 100 µM
GI50 [8]: 2.63 µM
CC50 [8]: 40.7 µM
GI50 [9]: 2.51 µM
CC50 [9]: 36.4 µM
GI50 [10]: 1.21 µM
CC50 [10]: > 100 µM
GI50 [11]: 2.26 µM
CC50 [11]: 35.2 µM
GI50 [12]: 4.01 µM
CC50 [12]: > 100 µM
GI50 [13]: 1.84 µM
CC50 [13]: > 100 µM
GI50 [14]: 3.47 µM
CC50 [14]: > 100 µM
GI50 [15]: 3.83 µM
CC50 [15]: 54.8 µM
GI50 [16]: 2.68 µM
CC50 [16]: > 100 µM
GI50 [17]: 3.25 µM
CC50 [17]: 79.4 µM
GI50 [18]: 1.63 µM
CC50 [18]: 36.6 µM
IC50 [19]: 2.6 ± 0.8 µM
GI50 [20]: 0.961 µM
CC50 [20]: 74.2 µM
GI50 [21]: 4.48 µM
CC50 [21]: > 100 µM
GI50 [22]: 0.614 µM
CC50 [22]: 48.5 µM
GI50 [23]: 2.98 µM
CC50 [23]: 62.8 µM
GI50 [24]: 3.43 µM
CC50 [24]: 38 µM
GI50 [25]: 0.399 µM
CC50 [25]: > 100 µM
